One experiment has as its system SARS-CoV-2 strain USA-WA1/2020. Nature of the experiment: microbe, parasite or virus in culture. It is filed as cell-based. Conditions: Severe acute respiratory syndrome coronavirus 2, HeLa-ACE2, 24 h, HeLa-ACE2 cells, SARS-CoV-2 infection, 24 h; class symbols; read-out: EC50, uM (Hela).
What is called EC50 is the concentration needed to bring the measured effect to its halfway point. For the compound `CC(C)C[C@H](NC(=O)C(=O)NCCc1ccccc1)C(=O)N[C@@H](C[C@@H]1CCNC1=O)C(=O)COc1c(F)c(F)cc(F)c1F` [Compound 41, N1-((S)-4-methyl-1-oxo-1-(((S)-3-oxo-1-((S)-2-oxopyrrolidin-3-yl)-4-(2,3,5,6-tetrafluorophenoxy)butan-2-yl)amino)pentan-2-yl)-N2-phenethyloxalamide], the EC50 is 0.05 to 0.2 µM. Same read-out and setting: then `COc1cccc2[nH]c(C(=O)N[C@@H](CC(C)C)C(=O)N[C@@H](C[C@@H]3CCNC3=O)C(=O)COc3c(F)c(F)cc(F)c3F)cc12` [Compound 1, 4-methoxy-N-((S)-4-methyl-1-oxo-1-(((S)-3-oxo-1-((S)-2-oxopyrrolidin-3-yl)-4-(2,3,5,6-tetrafluorophenoxy)butan-2-yl)amino)pentan-2-yl)-1H-indole-2-carboxamide], with 0.05 to 0.2 µM; and `CC(C)C[C@H](NC(=O)[C@H](O)C(F)(F)F)C(=O)N[C@@H](C[C@@H]1CCNC1=O)C(=O)COC(F)(F)F` [Compound 384, (S)-4-methyl-N-((S)-3-oxo-1-((S)-2-oxopyrrolidin-3-yl)-4-(trifluoromethoxy)butan-2-yl)-2-((S)-3,3,3-trifluoro-2-hydroxypropanamido)-pentanamide], with 0.05 to 0.2 µM; and `Cc1ccccc1NC(=O)C(=O)N[C@@H](CC1CCCCC1)C(=O)N[C@@H](C[C@@H]1CCNC1=O)C(=O)COc1c(F)c(F)cc(F)c1F` [Compound 93, N1-((S)-3-cyclohexyl-1-oxo-1-(((S)-3-oxo-1-((S)-2-oxopyrrolidin-3-yl)-4-(2,3,5,6-tetrafluorophenoxy)butan-2-yl)amino)propan-2-yl)-N2-(o-tolyl)oxalamide], with below 0.05 µM. The same measure, in the same setting: then `CC(C)C[C@H](NC(=O)c1cc2cnccc2[nH]1)C(=O)N[C@@H](C[C@@H]1CCNC1=O)C(=O)COC(F)(F)F` [Compound 200, N-((S)-4-methyl-1-oxo-1-(((S)-3-oxo-1-((S)-2-oxopyrrolidin-3-yl)-4-(trifluoromethoxy)butan-2-yl)amino)pentan-2-yl)-1H-pyrrolo[3,2-c]pyridine-2-carboxamide], with 0.2 to 0.5 µM; and `CC(C)C[C@H](NC(=O)C(=O)Nc1cc(F)ccc1F)C(=O)N[C@@H](C[C@@H]1CCNC1=O)C(=O)COc1c(F)c(F)cc(F)c1F` [Compound 72, Nl-(2,5-difluorophenyl)-N2-((S)-4-methyl-1-oxo-1-(((S)-3-oxo-1-((S)-2-oxopyrrolidin-3-yl)-4-(2,3,5,6-tetrafluorophenoxy)butan-2-yl)amino)pentan-2-yl)oxalamide], with 0.05 to 0.2 µM. Take `O=C(NC(CC1CCOCC1)C(=O)N[C@@H](C[C@@H]1CCNC1=O)C(=O)COC(F)(F)F)c1cc(-c2ccccc2F)on1` (stereo partly drawn) [Compound 183, 5-(2-fluorophenyl)-N-(1-oxo-1-(((S)-3-oxo-1-((S)-2-oxopyrrolidin-3-yl)-4-(trifluoromethoxy)butan-2-yl)amino)-3-(tetrahydro-2H-pyran-4-yl)propan-2-yl)isoxazole-3-carboxamide]: the EC50 was below 0.05 µM. The same measure, in the same setting: with `CC(C)C[C@H](NC(=O)C(=O)Nc1ccccc1F)C(=O)N[C@@H](C[C@@H]1CCCNC1=O)C(=O)COC(F)(F)F` [Compound 219, N^1-(2-fluorophenyl)-N^2—((S)-4-methyl-1-oxo-1-(((S)-3-oxo-1-((S)-2-oxopiperidin-3-yl)-4-(trifluoromethoxy)butan-2-yl)amino)pentan-2-yl)oxalamide] the figure was below 0.05 µM.

Still in this experiment, the particulars now being: Severe acute respiratory syndrome coronavirus 2, HeLa-ACE2, 24 h, HeLa-ACE2 cells, SARS-CoV-2 infection, 24 h; given as bound; read-out: EC50, uM (Hela).
As for `CC(C)(F)c1cc(C(=O)N2C=C3C[C@@H]3[C@H]2C(=O)N[C@@H](C[C@@H]2CCNC2=O)C(=O)COC(F)(F)F)no1` [Compound 501, (1S,2S)-3-(5-(2-fluoropropan-2-yl)isoxazole-3-carbonyl)-N-((S)-3-oxo-1-((S)-2-oxopyrrolidin-3-yl)-4-(trifluoromethoxy)butan-2-yl)-3-azabicyclo[3.1.0]hex-4-ene-2-carboxamide], the EC50 is above 1 µM.

Still in this experiment, the particulars now being: Severe acute respiratory syndrome coronavirus 2, HeLa-ACE2, 24 h, HeLa-ACE2 cells, SARS-CoV-2 infection, 24 h; read-out: EC50, uM (Hela).
Regarding `O=C(Nc1c(F)cccc1Cl)C(=O)N1CC2(CC2)C[C@H]1C(=O)N[C@@H](C[C@@H]1CCNC1=O)C(=O)COC(F)(F)F` [Compound 603, (S)-5-(2-((2-chloro-6-fluorophenyl)amino)-2-oxoacetyl)-N-((S)-3-oxo-1-((S)-2-oxo-pyrrolidin-3-yl)-4-(trifluoromethoxy)-butan-2-yl)-5-azaspiro[2.4]heptane-6-carboxamide], the EC50 lay within 0.05 to 0.2 µM. For `CC(C)(O)CCC(=O)N1CC2(CC2)C[C@H]1C(=O)N[C@@H](C[C@@H]1CCNC1=O)C(=O)COC(F)(F)F` [Compound 430, (S)-5-(4-hydroxy-4-methylpentanoyl)-N-((S)-3-oxo-1-((S)-2-oxopyrrolidin-3-yl)-4-(trifluoromethoxy)butan-2-yl)-5-azaspiro[2.4]heptane-6-carboxamide], the 50% effective concentration (EC50) was 0.2 to 0.5 µM. Same read-out and setting: then `O=C(NC(CC1CCOCC1)C(=O)N[C@@H](C[C@@H]1CCNC1=O)C(=O)COC(F)(F)F)C(=O)NC12CC(F)(C1)C2` (stereo partly drawn) [Compound 510, N1-(3-fluorobicyclo-[1.1.1]pentan-1-yl)-N2-(1-oxo-1-(((S)-3-oxo-1-((S)-2-oxopyrrolidin-3-yl)-4-(trifluoromethoxy)butan-2-yl)amino)-3-(tetrahydro-2H-pyran-4-yl)propan-2-yl)oxalamide], with 0.2 to 0.5 µM. As to `O=C1NCC[C@H]1C[C@H](NC(=O)[C@@H]1CC2(CC2)CN1C(=O)COCC(F)(F)F)C(=O)COC(F)(F)F` [Compound 673, (S)-N-((S)-3-oxo-1-((S)-2-oxopyrrolidin-3-yl)-4-(trifluoromethoxy)butan-2-yl)-5-(2-(2,2,2-trifluoroethoxy)acetyl)-5-azaspiro[2.4]heptane-6-carboxamide], the concentration giving a half-maximal response (EC50) was in the range of 0.05 to 0.2 µM. Same read-out and setting: then `CC1(C)C[C@@H](C(=O)N[C@@H](C[C@@H]2CCNC2=O)C(=O)COC(F)(F)F)N(C(=O)C(=O)NC2CC(F)(F)C2)C1` [Compound 543, (S)-1-(2-((3,3-difluorocyclo-butyl)amino)-2-oxoacetyl)-4,4-dimethyl-N-((S)-3-oxo-1-((S)-2-oxopyrrolidin-3-yl)-4-(trifluoromethoxy)butan-2-yl)pyrrolidine-2-carboxamide], with 0.5 to 1 µM; and `CC(O)C(F)(F)C(=O)N1CC2(CC2)C[C@H]1C(=O)N[C@@H](C[C@@H]1CCNC1=O)C(=O)COC(F)(F)F` (stereo partly drawn) [Compound 756, (6S)-5-(2,2-difluoro-3-hydroxybutanoyl)-N-((S)-3-oxo-1-((S)-2-oxopyrrolidin-3-yl)-4-(trifluoromethoxy)butan-2-yl)-5-azaspiro[2.4]heptane-6-carboxamide], with 0.05 to 0.2 µM; and `O=C1NCC[C@H]1C[C@H](NC(=O)[C@@H]1CC2(CC2)CN1C(=O)CO)C(=O)COC(F)(F)F` [Compound 698, (S)-5-(2-hydroxyacetyl)-N-((S)-3-oxo-1-((S)-2-oxopyrrolidin-3-yl)-4-(trifluoromethoxy)butan-2-yl)-5-azaspiro[2.4]heptane-6-carboxamide], with 0.05 to 0.2 µM.

The same experiment, now with this note: Severe acute respiratory syndrome coronavirus 2, HeLa-ACE2, 24 h; read-out: EC50, uM (Hela).
In the case of `CC1(C)[C@@H]2[C@@H](C(=O)N[C@@H](C[C@@H]3CCNC3=O)C(=O)COC(F)(F)F)N(C(=O)C(CN3CCC(F)(F)CC3)NC(=O)C(F)(F)F)C[C@@H]21` (stereo partly drawn) [Compound 442, (1R,2S, 5S)-3-(3-(4,4-difluoropiperidin-1-yl)-2-(2,2,2-trifluoroacetamido)-propanoyl)-6,6-dimethyl-N-((S)-3-oxo-1-((S)-2-oxopyrrolidin-3-yl)-4-(trifluoromethoxy)butan-2-yl)-3-azabicyclo[3.1.0]-hexane-2-carboxamide], the EC50 lay within 0.2 to 0.5 µM.

The values are drawn from patent publication US11708348B2, “Protease inhibitors for treatment of coronavirus infections” (The Scripps Research Institute, priority 2021, dated 2023).
